Earlier results on one compound are cited in patent US20160324770A1, “INTRATHECAL ADMINISTRATION, PREFERABLY INTRAVENTRICULAR, OF MTOR INHIBITORS FOR THE THERAPY OF SOME NEURODEGENERATIVE, NEUROINFLAMMATORY AND NEURO-ONCOLOGIC DISEASES” (priority 2012, published 2016).

For this data set the following is noted: cited from earlier work.

As usually defined, the half-life is the time needed for the level to fall by half in the phase considered. With `CO[C@H]1C[C@@H]2CC[C@@H](C)[C@@](O)(O2)C(=O)C(=O)N2CCCC[C@H]2C(=O)O[C@H]([C@H](C)C[C@@H]2CC[C@@H](O)[C@H](OC)C2)CC(=O)[C@H](C)/C=C(\C)[C@@H](O)[C@@H](OC)C(=O)[C@H](C)C[C@H](C)/C=C/C=C/C=C/1C` [rapamycin], the “half-life compared to everolimus” value is “more than double that time”. The half-life (according to the FDA) was 62 h.
